Row | SMILES | melting point
1 | c1ccc2oc(N3CCNCC3)nc2c1 | 74 to 76 °C
2 | Cc1cc(N)n(CCC#N)n1 | 104 to 106 °C
3 | Cc1nn2cnnc2[nH]c1=O | 195 to 197 °C
4 | O=C1CCOc2c(Cl)cc(Cl)cc21 | 86 to 88 °C
5 | NC(=S)N1CCN(c2nccs2)CC1 | 179 to 181 °C
6 | CCN(CC)S(=O)(=O)c1cc(C(=O)O)ccc1Cl | 118 to 120 °C
7 | O=C1CN=C(S)N1C1CCCCCC1 | 72 to 74 °C
8 | NN=C1C(=O)Nc2c(Cl)cc(Cl)cc21 | 261 to 263 °C
9 | Cn1cc(S(=O)(=O)Cl)cn1 | 48 to 50 °C
10 | NC(=O)c1ncc(Br)cc1Br | 187 to 189 °C
11 | O=C1Nc2cc(F)cc(F)c2C1=O | 229 to 231 °C
12 | O=C(O)CCN1C(=O)NC2(CCCC2)C1=O | 167 to 169 °C
13 | COC(=O)C=CN(C)C | 43 to 45 °C
14 | COC(=O)c1ccc(S(=O)(=O)Cl)cc1C | 54 to 56 °C
15 | CC(Oc1ccc(-c2ccccc2)cc1)C(=O)O (stereo not given) | 159 to 161 °C
16 | N#CCc1nccn1CC(F)(F)F | 106 to 108 °C
17 | COc1ccc(C(=O)CBr)cc1OC | 83 to 85 °C
18 | NS(=O)(=O)C1CCCC1 | 76 to 78 °C
19 | Nc1cc(Br)ccc1O | 127 to 129 °C
20 | O=C(O)CCCS(=O)(=O)c1ccc(Br)cc1 | 117 to 119 °C
21 | O=C(O)CNC(=O)c1ccc(C(F)(F)F)cc1 | 154 to 156 °C
22 | CC(=O)Nc1cc(C#N)ccc1S(C)(=O)=O | 145 to 147 °C
23 | Cc1csc(CC(=O)NN)n1 | 73 to 75 °C
24 | O=C(O)C1(Br)CCCC1 | 66 to 68 °C
25 | CCOc1ccc(C(C)=O)cc1OCC | 49 to 51 °C
26 | Cc1cccc(-c2nnc(C(C)Cl)o2)c1 (stereo not given) | < 17 °C

Row | SMILES | melting point
27 | CNC(=O)CC(N)=NO | 119 to 121 °C
28 | CC(O)c1cccc(O)c1 (stereo not given) | 112 to 114 °C
29 | O=C1CC2(CCCCC2)CC(=O)O1 | 210 to 214 °C
30 | CCNC(=O)NCCCO | 53 to 55 °C
31 | O=C(O)c1ccc(Cn2cc(Cl)cn2)o1 | 117 to 119 °C
32 | COC(=O)c1ccc(C)c(NCc2[nH]cnc2C)c1 | 180 to 182 °C
33 | CCNS(=O)(=O)c1ccc(/C=C/C(=O)O)cc1 | 248 to 250 °C
34 | CC(C)Oc1cc(Br)ccc1C(=O)O | 86 to 88 °C
35 | O=Cc1cccc(NC(=O)C(F)(F)F)c1 | 102 to 104 °C
36 | FC(F)(F)c1cc(Cl)nc(-c2ccncc2)n1 | 158 to 160 °C
37 | O=C(O)C1CCN(Cc2ccc(Cl)s2)CC1 | 173 to 175 °C
38 | CS(=O)(=O)Nc1ccc(S(=O)(=O)Cl)cc1 | 141 to 143 °C
39 | O=S1(=O)CCC(S(=O)(=O)Cl)CC1 | 175 to 177 °C
40 | ClCc1nnc(-c2c(Cl)cccc2Cl)o1 | 46 to 48 °C
41 | CCC1SC(N)=NC1=O (stereo not given) | 188 to 190 °C
42 | CN1CCN(Cc2cccc(N)c2)CC1 | 78 to 80 °C
43 | COc1ncc(Br)cc1CC(=O)O | 129 to 131 °C
44 | CC(C)(C)OC(=O)N1CCCCC1C#N (stereo not given) | 62 to 66 °C
45 | N#Cc1ccc(S)c(F)c1 | 59 to 61 °C
46 | COC(=O)c1cc(Cl)c(NC(=O)OCC(F)(F)F)cc1OC | 100 to 102 °C
47 | Cn1c(N)nccc1=O | 257 to 259 °C
48 | CCOc1cc(C(=O)O)ccc1OCC(=O)OC | 129 to 131 °C
49 | Cc1cccnc1NC1CCCCC1 | 81 to 83 °C
50 | Cc1ccc(C)c(S(=O)(=O)N2CCN(C(=O)CCC(=O)O)CC2)c1 | 143 to 145 °C
51 | COC(=O)c1n[nH]c(C)c1Br | 148 to 150 °C
52 | Cc1ccc(S(=O)(=O)NCC2CCCO2)cc1C(=O)O (stereo not given) | 160 to 162 °C

Row | SMILES | melting point
53 | O=C1CSC(C(F)(F)F)O1 (stereo not given) | 65 to 67 °C
54 | COc1csc(C(=O)O)c1 | 167 to 169 °C
55 | CC1(COS(C)(=O)=O)COC1 | 32 to 34 °C
56 | CN1CCN(S(=O)(=O)c2cccc(Br)c2)CC1 | 103 to 105 °C
57 | CC(=O)c1ccc(S(=O)(=O)C(F)F)cc1 | 92 to 94 °C
58 | CC(C)C(Cl)C(=O)O (stereo not given) | 33 to 35 °C
59 | Cc1cc(N)n(-c2ccc(C(F)(F)F)cn2)n1 | 119 to 121 °C
60 | Cc1cnc(C#N)nc1 | 67 to 69 °C
61 | O=Cc1cn(Cc2ccccc2)nc1-c1ccccc1 | 85 to 87 °C
62 | Cc1ccc(S(=O)(=O)Cl)cc1S(=O)(=O)N1CCCCC1 | 111 to 113 °C
63 | CCN(CC)S(=O)(=O)c1ccc(CC#N)nc1 | 72 to 74 °C
64 | O=[N+]([O-])c1ccc(Cl)c(S(=O)(=O)Cl)c1 | 85 to 87 °C
65 | COC(=O)c1sc2c(c1N)CCC(C(C)(C)C)C2 (stereo not given) | 153 to 155 °C
66 | CNS(=O)(=O)c1cc(N)ccc1C | 133 to 137 °C
67 | NNC(=O)c1cc(Br)c[nH]1 | 215 to 219 °C
68 | O=C(O)c1cccc(OCC(F)F)n1 | 94 to 96 °C
69 | NCCCNc1ccc(C(F)(F)F)cn1 | 48 to 50 °C
70 | CC(O)(C(=O)O)c1cccc(F)c1 (stereo not given) | 99 to 101 °C
71 | Cc1nc(S)nc(C)c1CCC(=O)O | 154 to 156 °C
72 | CC(C)(C)OC(=O)NCC1CCCC1N (stereo not given) | 43 to 45 °C
73 | Cn1[nH]c2c(c1=N)CCC2 | 134 to 136 °C
74 | O=C(O)c1cnc2sccn2c1=O | 269 to 271 °C
75 | CCC(=O)c1ccc(N(C)C)cc1 | 104 to 106 °C
76 | CC(C)(C)OC(=O)NCC1CCC(C(=O)O)CC1 (stereo not given) | 132 to 134 °C
77 | CC(Cl)C(=O)NC1CC1 (stereo not given) | 67 to 71 °C

Further lines, results first:

Row | melting point | SMILES
78 | 178 to 183 °C | O=S(=O)(c1cccc2c1N=S=N2)N1CCNCC1
79 | 61 to 63 °C | NCc1cccc(NC(=O)C2CCC2)c1
80 | 142 to 144 °C | O=C(c1ccc2c(c1)CCCN2)N1CCOCC1
81 | 57 to 59 °C | O=C(O)CSCc1ccc(Cl)cc1
82 | 171 to 173 °C | Cn1ccnc1SCC(=O)Nc1ccc(C(=O)O)cc1
83 | 54 to 56 °C | CCOc1ccc(NC2CCN(CC(F)(F)F)CC2)cc1
84 | 271 to 273 °C | O=C(O)c1ccc(NC(=O)c2cccc(Br)c2)cc1
85 | 114 to 116 °C | OCc1ccc(N2CCN(c3ncccn3)CC2)c(F)c1
86 | 166 to 168 °C | O=C(Nc1ccc(O)cc1)c1cccs1
87 | 144 to 146 °C | ClC(Cl)(Cl)C(c1ccc(Br)cc1)c1ccc(Br)cc1
88 | 108 to 110 °C | Nc1ccc(OCC2CCOCC2)cc1
89 | 132 to 134 °C | CC(=O)c1ccc(-n2ccnc2C)cc1
90 | 112 to 114 °C | NC1CC(=O)N(c2ccc(Oc3ccccc3)cc2)C1 (stereo not given)
91 | 76 to 78 °C | N#CCc1ccc(OCc2ccccn2)cc1
92 | 133 to 135 °C | O=C(O)c1nnn(-c2ccccc2F)c1C(F)(F)F
93 | 79 to 81 °C | Cc1cc(N)nn1-c1ccccc1
94 | 157 to 159 °C | O=C1C(=O)N(CO)c2ccccc21
95 | 159 to 161 °C | O=C1CCCc2nc(-c3ccncc3)sc21
96 | 274 to 276 °C | O=c1ccc(-c2cccc([N+](=O)[O-])c2)n[nH]1
97 | 195 to 197 °C | Nc1ccc(S(=O)(=O)N2CCCC(C(=O)O)C2)cc1 (stereo not given)
98 | 71 to 73 °C | CCN(CC)C(=O)c1ccccc1N
99 | 130 to 132 °C | O=C(O)CNS(=O)(=O)c1ccc(N2CCCC2=O)cc1
100 | 121 to 123 °C | COC(=O)c1cc(Cl)c2ccccc2n1

Row | melting point | SMILES
101 | 149 to 151 °C | O=C(O)c1ccc(-c2cccc(OC(F)(F)F)c2)s1
102 | 54 to 56 °C | O=C1CCn2cccc21
103 | 119 to 121 °C | O=[N+]([O-])c1c(Cl)ccc2ncccc12
104 | 165 to 167 °C | COc1ccc(C(=O)CCC(=O)O)c(Cl)c1
105 | 145 to 147 °C | Cc1nc(-c2ccccc2)c(N)n1C
106 | 188 to 190 °C | O=C(O)C(=O)Cc1ccc2ccccc2c1
107 | 133 to 135 °C | CC(=O)Nc1cccc(C#N)c1
108 | 224 to 226 °C | O=C(O)COCCN1CCN(C(c2ccccc2)c2ccc(Cl)cc2)CC1 (stereo not given)
109 | 141 to 143 °C | Nc1ccc(C(=O)NC2CCCC2)cc1
110 | 129 to 131 °C | O=C(O)c1cn(-c2ccccc2C(F)(F)F)nn1
111 | 270 to 272 °C | Cn1cc(Nc2ccc(=O)n(C)c2)ccc1=O
112 | 58 to 60 °C | COC(=O)C(=O)CC(=O)c1ccccc1
113 | 69 to 71 °C | Cc1ccc(C2(C)CC(=O)NC2=O)cc1 (stereo not given)
114 | 31 to 33 °C | Clc1noc(-c2ccccc2)n1
115 | 159 to 161 °C | COc1cc2ccncc2cc1O
116 | 75 to 77 °C | CC(Cl)C(=O)NCc1ccccc1 (stereo not given)
117 | 223 to 225 °C | CN1CCCCC/C1=N/S(=O)(=O)c1ccc(N)cc1
118 | 132 to 134 °C | O=C(c1ccc(Cl)nc1)N1CCc2ccccc21
119 | 259 to 261 °C | NC(=O)C1CCCN(c2ccc(C(=O)O)cc2)C1 (stereo not given)
120 | 128 to 130 °C | Cc1ccc(CN2C(=O)CCC2C(=O)O)cc1 (stereo not given)
121 | 143 to 145 °C | N#Cc1c(CCl)cn2ccccc12
122 | 150 to 152 °C | Nc1cccc(NC(=O)CO)c1
123 | 170 to 172 °C | N#Cc1nccnc1Oc1ccc(N)cc1

Row | melting point | SMILES
124 | 100 to 102 °C | NCc1cccc(NC(=O)c2cccc(F)c2)c1
125 | 216 to 218 °C | Cc1cccc2[nH]c(C(=O)O)cc12
126 | 196 to 198 °C | Nc1nnc(Cc2cccc(Cl)c2)s1
127 | 213 to 215 °C | COc1ccc2c(O)ccnc2c1
128 | 129 to 131 °C | COc1ccc(Cn2cnc(N)n2)cc1
129 | 78 to 80 °C | CCCc1c(C(=O)O)nnn1-c1cccc(C(C)C)c1
130 | 292 to 294 °C | O=c1[nH]c(=O)c2ccccc2s1
131 | 146 to 148 °C | CC1Oc2ccccc2N(CC(=O)O)C1=O (stereo not given)
132 | 125 to 127 °C | O=C(O)CCCOc1cccnc1
133 | 282 to 284 °C | NC(C(=O)O)c1ccccc1C(F)(F)F (stereo not given)
134 | 129 to 131 °C | Cc1cc2nc(-c3cccc4ncccc34)[nH]c2cc1C
135 | 149 to 151 °C | COc1cn(-c2cccc(C(F)(F)F)c2)nc1C(=O)O
136 | 39 to 41 °C | Cc1ccsc1C(=O)c1ccc(Cl)cc1F
137 | 229 to 231 °C | CCCCOc1ccc(-c2nnc(N)o2)cc1
138 | 83 to 85 °C | OC1CCCCC1c1ccc(Cl)cc1 (stereo not given)
139 | 179 to 181 °C | O=C(Cc1cccc2ccccc12)NO
140 | 76 to 78 °C | NCC(O)(c1ccccc1)C(F)(F)F (stereo not given)
141 | 232 to 234 °C | CNc1cnnc2ccccc12
142 | 118 to 120 °C | O=Cc1cc2ccccc2nc1N1CCCCC1
143 | 104 to 106 °C | NCc1ccc(N2CCC(O)CC2)c(F)c1
144 | 104 to 108 °C | CCOc1ccccc1N1CC(C(=O)O)CC1=O (stereo not given)
145 | 169 to 171 °C | CNS(=O)(=O)c1cc(N)ccc1OC
